Results reported in article PMC2615640 (Chemical research in toxicology, 2008).
“Also recorded” adds a separate entry of the source. Marks after values point to notes of the source that are not given here.

Experiments:
[1] = LC-MS-MS analysis of GSH conjugates; conditions: 1 mM GSH, pH 8.0, 1 h, room temperature
[2] = Crystal violet cytotoxicity assay; format: cell-based; conditions: mouse, Hepa1c1c7 murine hepatoma cells
[3] = tested on: NAD(P)H:quinone oxidoreductase 1 (NQO1); experiment: In vitro NQO1 induction assay in Hepa-1c1c7 cells; conditions: Hepa1c1c7 cells; for NQO1 assay CD ± SD (concentration required for two-fold induction of NQO1): pure compounds, 48 h
[4] = tested on: antioxidant response element (ARE); experiment: ARE-luciferase activity assay in HepG2-ARE-C8 cells; format: cell-based; conditions: 24 h treatment
[5] = dry state, 24 h at room temperature, from 98.6% freshly isolated; cited from earlier work
[6] = p.o. dose 500 mg/kg, rats; cited from earlier work
[7] = DPPH assay; format: biochemical; conditions: for DPPH % FRS ± SD: pure compounds at screening concentration of 100 μM
[8] = tested on: NAD(P)H:quinone oxidoreductase 1 (NQO1); conditions: cited from earlier work

SMILES | NQO1 inducing activity (in words) [3] | DPPH % FRS ± SD [7] | NQO1 assay CD ± SD (concentration required for two-fold induction of NQO1) [3] | other results
CCC/C=C1\OC(=O)C2=C1CCC=C2 [Compound 1, Z-ligustilide] | respectable NQO1 inducing activities | < 50% |  | covalent modification of GSH / GSH conjugate formation [1]: covalently modified GSH; also recorded: formed GSH conjugates; IC50 at 48 h [2]: 71.2 ± 4.1 µM; ARE-luciferase reporter activity [4]: increased ARE-luciferase reporter activity in a dose-dependent manner; also recorded: induced ARE reporter luciferase activity in a dose-dependent manner; purity (GC-MS) after degradation [5]: 58.1%; GSH conjugate in plasma [6]: a GSH conjugate with monooxygenated ligustilide (mass 206) could be detected in the plasma
CCC/C=C1\OC(=O)c2ccccc21 [Compound 2, Z-butylidenephthalide] | did not induce NQO1 activity | < 50% | > 20 µM | IC50 at 48 h [2]: > 20 µM
CCC/C=C1\OC(=O)C2=C1CC[C@@H](O)[C@@H]2O [Compound 3, senkyunolide I] | weak NQO1 inducing properties | < 50% | 17.9 ± 0.6 µM | 
CCC/C=C1\OC(=O)C2=CC3CCC21[C@]1(OC(=O)c2ccccc21)[C@@H]3CCC (stereo partly shown) [Compound 4, ansaspirolide] | potent inducing properties | < 50% | 0.9 ± 0.1 µM | CI (Chemopreventive Index: IC50/CD) [3]: 3
CCC/C=C1\OC(=O)C23C=CCCC12C1(OC(=O)c2ccccc21)C3CCC (stereo not shown) [Compound 5, sinaspirolide] | did not show any NQO1 inducing activity | < 50% | > 20 µM | 
COc1cc(/C=C/C(=O)OCC(O)C(OC)c2ccc(O)c(OC)c2)ccc1O (stereo not shown) [Compound 6, angeliferulate] | respectable NQO1 inducing activities; also recorded: high NQO1 inducing properties |  | 7.5 ± 0.2 µM | 
COc1cc(/C=C/C(=O)OCCc2ccc(O)cc2)ccc1O [Compound 7, p-hydroxyphenethyl trans-ferulate] | respectable NQO1 inducing activities; also recorded: high NQO1 inducing properties | 65 ± 1% | 2.4 ± 0.3 ^f μM | radical scavenging activity (in words) ([7]; DPPH): moderate radical scavenging activity
C[S+]([O-])CCCCN=C=S (stereo not shown) [sulforaphane] |  |  |  | CI (chemopreventive index) [8]: 26
